Assay [1] deals with SD rats. Put plainly: Von Frey test in rat incisional pain model (Brennan method). Conditions: for Von Frey Hairs (g) 1 h: paw withdrawal threshold 1 h after surgery; for Von Frey Hairs (g) 1 h / Von Frey Hairs (g) 3 h / Von Frey Hairs (g) 6 h / Von Frey Hairs (g) 12 h / Von Frey Hairs (g) 24 h: injected in the incision, 10 mg/kg (counted by lidocaine) or 4 mg/kg (counted by bupivacaine); for Von Frey Hairs (g) 1 h / Von Frey Hairs (g) 3 h / Von Frey Hairs (g) 6 h / Von Frey Hairs (g) 12 h / Von Frey Hairs (g) 24 h / Von Frey Hairs (g) Basline: x±s; for Von Frey Hairs (g) 3 h: paw withdrawal threshold 3 h after surgery; for Von Frey Hairs (g) 6 h: paw withdrawal threshold 6 h after surgery; for Von Frey Hairs (g) 12 h: paw withdrawal threshold 12 h after surgery; for Von Frey Hairs (g) 24 h: paw withdrawal threshold 24 h after surgery; for Von Frey Hairs (g) Basline: paw withdrawal threshold before surgery and administration, 6 rats per group. The assay is classed as in vivo.

The conditions of assay [2]: single dose injected; postoperative pain; background statement; cited from earlier work.
For assay [3] the following is noted: background statement; cited from earlier work.

Counter-ions that a name gives are not always drawn.

Consider `CCCCN1CCCCC1C(=O)Nc1c(C)cccc1C` (stereo not drawn) [Bupivacaine hydrochloride], for which, in assay [1] (discussion of Table 1), the “duration of analgesia (in words)” value is given as “relatively long duration” and the “onset of analgesic effect (in words)” value is recorded as “takes effect more slowly than lidocaine hydrochloride”. Further, in assay [1], the “Von Frey Hairs (g) 1 h” value was 4.3 ± 0.7 g, the “Von Frey Hairs (g) 3 h” value amounted to 6.6 ± 0.4 g, the “Von Frey Hairs (g) 6 h” value was found to be 5.3 ± 0.5 g and the “Von Frey Hairs (g) 12 h” value is 3.4 ± 0.9 g. Moreover, in assay [1], the “Von Frey Hairs (g) 24 h” value was 1.7 ± 0.4 g and the “Von Frey Hairs (g) Basline” value was 7.3 ± 0.7 g.

Turning to `CCCCN1CCCCC1C(=O)Nc1c(C)cccc1C` (stereo not drawn) [Bupivacaine], in assay [2], the “duration of analgesic effect” value is listed as “less than 7 h”.

For `CCCCN1CCCC[C@H]1C(=O)Nc1c(C)cccc1C` [L-bupivacaine], the “duration of the drug (local anesthesia)” value in assay [3] was 5 to 7 h.

For the compound `CCN(CC)CC(=O)Nc1c(C)cccc1C` [lidocaine], in assay [3], the “duration of the drug (local anesthesia)” value is 1 to 2 h.

Regarding `CCN(CC)CC(=O)Nc1c(C)cccc1C` [Lidocaine hydrochloride], in assay [1], the “Von Frey Hairs (g) 1 h” value is recorded as 6.6 ± 0.5 g, the “Von Frey Hairs (g) 3 h” value is recorded as 6.1 ± 0.4 g, the “Von Frey Hairs (g) 6 h” value is 4.0 ± 0.6 g and the “Von Frey Hairs (g) 12 h” value was 1.5 ± 0.4 g. For the same compound, in assay [1], the “Von Frey Hairs (g) 24 h” value was determined as 1.4 ± 0.2 g and the “Von Frey Hairs (g) Basline” value is given as 7.5 ± 0.8 g.

As to `CCCN1CCCC[C@H]1C(=O)Nc1c(C)cccc1C` [ropivacaine], in assay [3], the “duration of the drug (local anesthesia)” value was 4.4 h.

Values taken from patent publication US10525143B2, “Conjugate of polyethylene glycol and anesthetic, and preparation method thereof” (JenKem Technology Co., Ltd. (Tianjin), priority 2015, dated 2020).
